# Patent US20230109839A1, “THERAPEUTIC AGENT FOR TAUOPATHIES” (SUMITOMO PHARMA CO., LTD., priority 2020, published 2023)
# Target: T1, human Nav1.1 (Homo sapiens, UniProt P35498)
# T1 construct: host or cells: HEK293
# Test: Amplification of Nav1.1-derived voltage-gated sodium current (Nav1.1 current), automated patch clamp (Test 1)
# Type: cell-based
# Details: Concentration for evaluation 1 μM; HEK293 cell line stably expressing human Nav1.1
# Outline: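 Compound-induced change in ramp-evoked sodium current peak and AUC was expressed as 100×post/pre ratio minus 100. Recordings used automated patch clamp in voltage-clamp mode on a stable human Nav1.1 HEK293 line, including only cells above 500 pA. Compounds were delivered in extracellular fluid containing 1% DMSO.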
row,SMILES,Nav1.1 current amplification rate (%)
1,O=C(Cn1nc(-c2cc(Cl)cs2)ccc1=O)Nc1ccn2ccnc2c1 [Example 467],80%
2,COc1cc(C2=CCC(C)(C)CC2)nn(CC(=O)N2CCc3c(N4CCOCC4)cccc32)c1=O [Example 468],275%
3,O=C(Cn1nc(C2=CCCCC2)ccc1=O)N1CCc2c(N3CCOCC3)cccc21 [Example 480],110%
4,CN(CC1CC(F)(F)C1)c1cnc2cnn(CC(=O)Nc3ccn4ncnc4c3)c2n1 [Example 624],61%

# Same assay, conditions: Concentration for evaluation 3 μM; HEK293 cell line stably expressing human Nav1.1
row,SMILES,Nav1.1 current amplification rate (%)
1,O=C(Cn1nc(C2=CCC3(CC2)CC3(F)F)ccc1=O)N1CCc2c(N3CCOCC3)cccc21 (centres unmarked) [Example 478],345%

# Same assay, conditions: Concentration for evaluation 10 μM; HEK293 cell line stably expressing human Nav1.1
row,SMILES,Nav1.1 current amplification rate (%)
1,CC1(C)CC=C(c2ccc(=O)n(CC(=O)N3CCC4(CCOCC4)CC3)n2)CC1 [Example 441],30%
2,Cc1cncc(N2CCN(C(=O)Cn3nc(C4=CCC(C)(C)CC4)ccc3=O)CC2)c1 [Example 442],414%
3,Cc1ccc(N2CCN(C(=O)Cn3nc(C4=CCC(C)(C)CC4)ccc3=O)CC2)cn1 [Example 443],114%
4,CC1(C)CC=C(c2ccc(=O)n(CC(=O)N3CCN(c4cncc(F)c4)CC3)n2)CC1 [Example 444],292%
5,COc1cc(=O)n(CC(=O)Nc2ccc3ocnc3c2)nc1C1=CCC(C)(C)CC1 [Example 451],365%
6,Cc1ccc(-c2ccc(=O)n(CC(=O)Nc3ccc4ocnc4c3)n2)cn1 [Example 452],10%
7,O=C(Cn1nc(-c2ccc(C(F)(F)F)nc2)ccc1=O)Nc1ccc2ocnc2c1 [Example 453],15%
8,O=C(Cn1nc(-c2cc(Cl)cs2)ccc1=O)Nc1ccc2ocnc2c1 [Example 454],157%
9,Cc1ccc(-c2ccc(=O)n(CC(=O)Nc3ccc4ocnc4c3)n2)s1 [Example 455],131%
10,COc1cc(C2=CCC(C)(C)CC2)nn(CC(=O)Nc2ccn3ccnc3c2)c1=O [Example 456],224%
11,O=C(Cn1nc(C2=CCCCC2)ccc1=O)Nc1ccn2ccnc2c1 [Example 458],24%
12,COc1cc(=O)n(CC(=O)Nc2ccn3ccnc3c2)nc1C1=CCC(C)(C)CC1 [Example 459],118%
13,Cc1cc(C2=CCC(C)(C)CC2)nn(CC(=O)Nc2ccn3ccnc3c2)c1=O [Example 460],221%
14,Cc1cc(=O)n(CC(=O)Nc2ccn3ccnc3c2)nc1C1=CCC(C)(C)CC1 [Example 461],337%
15,COc1cc(C2=CCC(C(F)(F)F)CC2)nn(CC(=O)Nc2ccn3ccnc3c2)c1=O (centres unmarked) [Example 462],124%
16,COc1cc(C2=CCC(C)CC2)nn(CC(=O)Nc2ccn3ccnc3c2)c1=O (centres unmarked) [Example 463],218%
17,O=C(Cn1nc(C2=CCC(F)(F)CC2)ccc1=O)Nc1ccn2ccnc2c1 [Example 464],18%
18,CC1(C)CC=C(c2ccc(=O)n(CC(=O)Nc3ccn4ccnc4c3)n2)C1 [Example 465],186%

row,SMILES,Nav1.1 current amplification rate (%)
1,COc1cc(-c2cc(Cl)cs2)nn(CC(=O)Nc2ccn3ccnc3c2)c1=O [Example 466],233%
2,COc1cc(=O)n(CC(=O)N2CCc3c(N4CCOCC4)cccc32)nc1C1=CCC(C)(C)CC1 [Example 470],522%
3,COc1cc(C2=CCC(C)CC2)nn(CC(=O)N2CCc3c(N4CCOCC4)cccc32)c1=O (centres unmarked) [Example 473],487%
4,COc1cc(C2=CCC(C(F)(F)F)CC2)nn(CC(=O)N2CCc3c(N4CCOCC4)cccc32)c1=O (centres unmarked) [Example 474],235%
5,CC1(C)CC=C(c2ccc(=O)n(CC(=O)N3CCc4c(N5CCOCC5)cccc43)n2)C1 [Example 475],633%
6,COc1cc(=O)n(CC(=O)N2CCc3c(N4CCOCC4)cccc32)nc1C1=CCC(C(F)(F)F)CC1 (centres unmarked) [Example 476],343%
7,CC1CC=C(c2ccc(=O)n(CC(=O)N3CCc4c(N5CCOCC5)cccc43)n2)C1 (centres unmarked) [Example 477],398%
8,COc1cc(-c2cc(Cl)cs2)nn(CC(=O)N2CCc3c(N4CCOCC4)cccc32)c1=O [Example 479],420%
9,O=C(Cn1nc(C2=CCCC2)ccc1=O)N1CCc2c(N3CCOCC3)cccc21 [Example 481],128%
10,COc1cc(C2=CCC(C(F)(F)F)CC2)nn(CC(=O)N2CCN(c3cncc(F)c3)CC2)c1=O (centres unmarked) [Example 482],219%
11,CC1(C)CC=C(c2ccc(=O)n(CC(=O)N3CCN(c4cncc(F)c4)CC3)n2)C1 [Example 483],175%
12,CC1CC=C(c2ccc(=O)n(CC(=O)N3CCN(c4cncc(F)c4)CC3)n2)C1 (centres unmarked) [Example 484],224%
13,COc1cc(=O)n(CC(=O)N2CCN(c3cncc(F)c3)CC2)nc1C1=CCC(C(F)(F)F)CC1 (centres unmarked) [Example 486],148%
14,O=C(Cn1nc(C2=CCC(C(F)(F)F)CC2)ccc1=O)N1CCN(c2cncc(F)c2)CC1 (centres unmarked) [Example 487],190%
15,COc1cc(C2=CCC(C)CC2)nn(CC(=O)N2CCN(c3cncc(F)c3)CC2)c1=O (centres unmarked) [Example 488],376%
16,O=C(Cn1nc(C2=CCC(F)(F)CC2)ccc1=O)N1CCN(c2cncc(F)c2)CC1 [Example 489],29%
17,COc1cc(=O)n(CC(=O)N2CCN(c3cncc(F)c3)CC2)nc1C1=CCC(C)(C)CC1 [Example 490],469%
18,CCN(C)c1cnc2cnn(CC(=O)Nc3ccn4ncnc4c3)c2n1 [Example 623],25%

# Same assay, conditions: Concentration for evaluation 50 μM; HEK293 cell line stably expressing human Nav1.1
row,SMILES,Nav1.1 current amplification rate (%)
1,O=C(Cn1nc(C2=CCCC2)ccc1=O)Nc1ccn2ccnc2c1 [Example 457],29%

# Same assay, conditions: HEK293, Concentration for evaluation 1 μM; HEK293 cell line stably expressing human Nav1.1; read-out: Nav1.1 current amplification rate (%)
row,SMILES,activation at 1 µM
1,"CC1CCN(c2cnc3cnn(CC(=O)Nc4ccn5ncnc5c4)c3n2)CC1 [Example 572, 2-[6-(4-Methylpiperidin-1-yl)-1H-pyrazolo[3,4-b]pyrazin-1-yl]-N-([1,2,4]triazolo[1,5-a]pyridin-7-yl)acetamide]",49%
2,"CC(C)CN(C)c1cnc2cnn(CC(=O)Nc3ccn4ncnc4c3)c2n1 [Example 573, 2-{6-[Methyl(2-methylpropyl)amino]-1H-pyrazolo[3,4-b]pyrazin-1-yl}-N-([1,2,4]triazolo[1,5-a]pyridin-7-yl) acetamide]",44%
3,"Cc1ccc(-c2cnc3cnn(CC(=O)Nc4ccn5ncnc5c4)c3n2)c(F)c1 [Example 574, 2-[6-(2-Fluoro-4-methylphenyl)-1H-pyrazolo[3,4-b]pyrazin-1-yl]-N-([1,2,4]triazolo[1,5-a]pyridin-7-yl)acetamide]",303%
4,"Cc1cnc(-c2cnc3cnn(CC(=O)Nc4ccn5ncnc5c4)c3n2)s1 [Example 575, 2-[6-(5-Methyl-1,3-thiazol-2-yl)-1H-pyrazolo[3,4-b]pyrazin-1-yl]-N-([1,2,4]triazolo[1,5-a]pyridin-7-yl)acetamide]",84%

# Same assay, conditions: HEK293, Concentration for evaluation 3 μM; HEK293 cell line stably expressing human Nav1.1; read-out: Nav1.1 current amplification rate (%)
row,SMILES,activation at 3 µM
1,"O=C(Cn1ncc2ncc(C3CCC3)nc21)Nc1ccn2ncnc2c1 [Example 576, 2-(6-Cyclobutyl-1H-pyrazolo[3,4-b]pyrazin-1-yl)-N-([1,2,4]triazolo[1,5-a]pyridin-7-yl)acetamide]",14%
